Patent US20100298141A1, “SUBSTITUTED PYRIDINE N-OXIDE HERBICIDES” (E. I. DU PONT DE NEMOURS AND COMPANY, priority 2007, published 2010)

Experiments:
[1] = test system: crabgrass; assay: Test A pre-/postemergence greenhouse test; type: in vivo, Digitaria sanguinalis; conditions: for Plant response rating, Crabgrass, Large: 0 to 100 scale where 0 is no effect and 100 is complete control; for Crabgrass, Large plant response rating: 0 to 100 scale
Outline: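 Greenhouse herbicide screen, pre- and postemergence in parallel. Soil: loam plus sand. Formulation: non-phytotoxic solvent mix with surfactant. Postemergence stage: one to two leaves, 2–10 cm height. Evaluation: visual injury, compared with untreated controls, about 10 days after treatment.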

[2] = test system: kochia; assay: Test C pre-/postemergence test; type: in vivo, Kochia scoparia
Outline: (§1)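 Compounds in a non-phytotoxic solvent with surfactant applied preemergence to seeded pots and, at the same time, postemergence to plants 2–18 cm tall (1- to 4-leaf stage). Paddy tests: pots flooded to 3 cm, compound applied into the water, depth held throughout.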

[3] = test system: yellow nutsedge; assay: Test C pre-/postemergence test; type: in vivo, Cyperus esculentus
Outline: as §1

[4] = test system: common ragweed; assay: Test C pre-/postemergence test; type: in vivo, Ambrosia elation
Outline: as §1

[5] = test system: bermudagrass; assay: Test F preemergence test; type: in vivo, Cynodon dactylon; conditions: scale 0 to 100
Outline: (§2)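 Preemergence application to planted seeds, or postemergence to sugarcane plants; compound in non-phytotoxic solvent mix plus surfactant. Greenhouse, 14-21 days. Visual rating vs. controls.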

[6] = test system: green foxtail; assay: Test F preemergence test; type: in vivo, Setaria viridis; conditions: scale 0 to 100
Outline: as §2

[7] = test system: goosegrass; assay: Test F preemergence test; type: in vivo, Eleusine indica; conditions: scale 0 to 100
Outline: as §2

[8] = test system: pitted morningglory; assay: Test F preemergence test; type: in vivo, Ipomoea lacunosa; conditions: scale 0 to 100
Outline: as §2

[9] = test system: purple nutsedge; assay: Test F preemergence test; type: in vivo, Cyperus rotundus; conditions: scale 0 to 100
Outline: as §2

[10] = test system: common ragweed; assay: Test F preemergence test; type: in vivo, Ambrosia elation; conditions: scale 0 to 100; for Ragweed plant response rating: preemergence; for Plant response rating, Ragweed: Preemergence
Outline: as §2

[11] = test system: prickly sida; assay: Test F preemergence test; type: in vivo, Sida spinosa; conditions: scale 0 to 100
Outline: as §2

[12] = test system: broadleaf signalgrass; assay: Test F preemergence test; type: in vivo, Brachiaria platyphylla; conditions: scale 0 to 100; for Signalgrass plant response rating: preemergence; for Plant response rating, Signalgrass: Preemergence
Outline: as §2

[13] = test system: naked crabgrass; assay: Test F preemergence test; type: in vivo, Digitaria nuda; conditions: scale 0 to 100
Outline: as §2

[14] = test system: itchgrass; assay: Test F preemergence test; type: in vivo, Rottboellia cochinchinensis; conditions: scale 0 to 100
Outline: as §2

[15] = 62 g ai/ha, Preemergence, scale 0 to 100
[16] = 125 g ai/ha, preemergence, scale 0 (no effect) to 100 (complete control)
[17] = Postemergence, 62 g ai/ha, scale 0 to 100, 0 no effect, 100 complete control
[18] = Postemergence, 125 g ai/ha, scale 0 to 100, 0 no effect, 100 complete control
[19] = Postemergence, 250 g ai/ha, scale 0 to 100, 0 no effect, 100 complete control
[20] = Preemergence, 31 g ai/ha, scale 0 to 100 (0 no effect, 100 complete control)
[21] = preemergence, 250 g ai/ha, scale 0 (no effect) to 100 (complete control)

Cn1nc(C(F)(F)F)c(C[S+]([O-])c2ccc(F)c[n+]2[O-])c1OC(F)F (centres unmarked) [Compound 58]
Plant response rating, Crabgrass, Large ([1]; Postemergence, 125 g ai/ha): 80
Crabgrass, Large plant response rating ([1]; Postemergence, 500 g ai/ha, 0 is no effect, 100 is complete control): 90
Crabgrass, Large plant response rating ([1]; Preemergence, 125 g ai/ha, 0 no effect, 100 complete control): 80
Plant response rating, Crabgrass, Large ([1]; Preemergence, 500 g ai/ha): 100
Kochia plant response rating [2, 15]: 50
Kochia plant response rating [2, 16]: 100
Plant response rating (0 to 100), Kochia ([2]; Postemergence, 31 g ai/ha): 0
Plant response rating, Kochia [2, 17]: 0
Plant response rating, Kochia [2, 18]: 0
Plant response rating, Kochia [2, 19]: 50
Plant response rating, Kochia [2, 20]: 0
Kochia plant response rating [2, 21]: 100
Nutsedge, Yellow plant response rating [3, 15]: 40
Nutsedge, Yellow plant response rating [3, 16]: 70
Plant response rating (0 to 100), Nutsedge, Yellow ([3]; Postemergence, 31 g ai/ha): 0
Plant response rating, Nutsedge, Yellow [3, 17]: 0
Plant response rating, Nutsedge, Yellow [3, 18]: 0
Plant response rating, Nutsedge, Yellow [3, 19]: 50
Plant response rating, Nutsedge, Yellow [3, 20]: 0
Nutsedge, Yellow plant response rating [3, 21]: 98
Ragweed plant response rating [4, 15]: 30
Ragweed plant response rating [4, 16]: 55
Plant response rating (0 to 100), Ragweed ([4]; Postemergence, 31 g ai/ha): 0
Plant response rating (0 to 100), Ragweed ([4]; Postemergence, 62 g ai/ha): 0
Plant response rating, Ragweed [4, 18]: 0
Plant response rating, Ragweed [4, 19]: 30
Plant response rating, Ragweed [4, 20]: 30
Ragweed plant response rating [4, 21]: 100
Bermudagrass plant response rating ([5]; 62 g ai/ha, Preemergence): 90
Bermudagrass plant response rating ([5]; 125 g ai/ha, preemergence): 100
Bermudagrass plant response rating ([5]; 250 g ai/ha, preemergence): 100
Plant response rating, Bermudagrass ([5]; Preemergence, 31 g ai/ha): 70
Foxtail, Green plant response rating ([6]; 62 g ai/ha, Preemergence): 95
Foxtail, Green plant response rating ([6]; 125 g ai/ha, preemergence): 100
Foxtail, Green plant response rating ([6]; 250 g ai/ha, preemergence): 100
Plant response rating, Foxtail, Green ([6]; Preemergence, 31 g ai/ha): 60
Goosegrass plant response rating ([7]; 62 g ai/ha, Preemergence): 98
Goosegrass plant response rating ([7]; 125 g ai/ha, preemergence): 98
Goosegrass plant response rating ([7]; 250 g ai/ha, preemergence): 100
Plant response rating, Goosegrass ([7]; Preemergence, 31 g ai/ha): 70
Morningglory plant response rating ([8]; 62 g ai/ha, Preemergence): 70
Morningglory plant response rating ([8]; 125 g ai/ha, preemergence): 100
Morningglory plant response rating ([8]; 250 g ai/ha, preemergence): 100
Plant response rating, Morningglory ([8]; Preemergence, 31 g ai/ha): 50
Purple Nutsedge plant response rating ([9]; 62 g ai/ha, Preemergence): 80
Purple Nutsedge plant response rating ([9]; 125 g ai/ha, preemergence): 95
Purple Nutsedge plant response rating ([9]; 250 g ai/ha, preemergence): 95
Plant response rating, Purple Nutsedge ([9]; Preemergence, 31 g ai/ha): 0
Ragweed plant response rating ([10]; 125 g ai/ha): 60
Ragweed plant response rating ([10]; 250 g ai/ha): 80
Plant response rating, Ragweed ([10]; 62 g ai/ha): 60
Plant response rating, Ragweed ([10]; 31 g ai/ha): 50
Prickly Sida plant response rating ([11]; 62 g ai/ha, Preemergence): 65
Prickly Sida plant response rating ([11]; 125 g ai/ha, preemergence): 95
Prickly Sida plant response rating ([11]; 250 g ai/ha, preemergence): 98
Plant response rating, Prickly Sida ([11]; Preemergence, 31 g ai/ha): 0
Signalgrass plant response rating ([12]; 125 g ai/ha): 90
Signalgrass plant response rating ([12]; 250 g ai/ha): 98
Plant response rating, Signalgrass ([12]; 62 g ai/ha): 80
Plant response rating, Signalgrass ([12]; 31 g ai/ha): 30
Crabgrass, Naked plant response rating ([13]; 62 g ai/ha, Preemergence): 100
Crabgrass, Naked plant response rating ([13]; 125 g ai/ha, preemergence): 100
Crabgrass, Naked plant response rating ([13]; 250 g ai/ha, preemergence): 100
Plant response rating, Crabgrass, Naked ([13]; Preemergence, 31 g ai/ha): 75
Itchgrass plant response rating ([14]; 62 g ai/ha, Preemergence): 75
Itchgrass plant response rating ([14]; 125 g ai/ha, preemergence): 90
Itchgrass plant response rating ([14]; 250 g ai/ha, preemergence): 100
Plant response rating, Itchgrass ([14]; Preemergence, 31 g ai/ha): 35
